Consider 5 compounds from patent US20030162792A1, “Indole derivatives useful for the treatment of CNS disorders” (H. Lundbeck A/S, priority 2000, published 2003).

Structures can show the parent of a compound that is named as a salt. Where two headings read alike, the source gives them in different places.

What is called IC50 is the midpoint of a concentration-inhibition curve.

In assay [1] the target is T1, human cloned dopamine D4.2 receptors expressed in CHO-cells (Homo sapiens, UniProt P21917, DEL265-296).
T1 construct: expressed in transfected cells; host or cells: CHO cells
T1 sequence (P21917 with tags, fused parts or gaps DEL265-296): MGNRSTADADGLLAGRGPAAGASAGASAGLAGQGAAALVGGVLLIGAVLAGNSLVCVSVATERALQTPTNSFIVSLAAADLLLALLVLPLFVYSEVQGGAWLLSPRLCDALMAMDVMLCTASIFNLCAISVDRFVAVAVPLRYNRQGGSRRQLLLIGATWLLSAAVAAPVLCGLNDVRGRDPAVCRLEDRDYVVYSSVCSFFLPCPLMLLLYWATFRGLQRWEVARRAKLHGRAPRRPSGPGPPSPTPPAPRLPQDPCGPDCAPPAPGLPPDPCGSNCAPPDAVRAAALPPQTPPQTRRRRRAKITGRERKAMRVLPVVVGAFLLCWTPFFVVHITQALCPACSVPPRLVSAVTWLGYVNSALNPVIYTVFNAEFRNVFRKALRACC
Put plainly: Inhibition of the binding of [3H]YM-09151-2 to human dopamine D4.2 receptors. The settings on record: for D4-bind. % inhibition of binding: at 50 nM. The text has this: Method modified from NEN Life Science Products, Inc., technical data certificate PC2533-10/96.

Another assay concerns the target T2, 5-HT2A receptors (Rattus norvegicus, UniProt P14842).
T2 construct: membranes from rat brain (cortex) in vitro; from tissue; host or cells: rat brain cortex membranes
Put plainly: Inhibition of the binding of [3H]Ketanserin to 5-HT2A receptors. As for the experimental part: Inhibition of the Binding of [^3H]Ketanserin to 5-HT2A Receptors
The compounds were tested with respect to their affinity for 5-HT2A receptors by determining their ability to inhibit the binding of [^3H]Ketanserin (0.50 nM) to membranes from rat brain (cortex) in vitro. Method described in Sanchez et al. Drug Dev. Res. 1991, 22, 239-250.

The next assay addresses T3, D4 receptor (Homo sapiens, UniProt P21917).
T3 sequence (P21917 1-419): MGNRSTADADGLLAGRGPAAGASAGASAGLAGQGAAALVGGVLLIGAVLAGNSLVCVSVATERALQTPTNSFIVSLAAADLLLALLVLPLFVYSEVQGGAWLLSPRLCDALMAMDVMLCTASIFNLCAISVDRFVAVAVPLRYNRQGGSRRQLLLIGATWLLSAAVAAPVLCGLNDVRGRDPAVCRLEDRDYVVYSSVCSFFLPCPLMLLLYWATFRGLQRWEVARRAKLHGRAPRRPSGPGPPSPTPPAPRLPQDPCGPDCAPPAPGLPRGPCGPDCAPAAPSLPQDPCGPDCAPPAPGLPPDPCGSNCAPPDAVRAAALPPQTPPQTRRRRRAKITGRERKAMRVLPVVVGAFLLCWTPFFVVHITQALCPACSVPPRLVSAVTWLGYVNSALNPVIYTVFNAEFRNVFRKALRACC
The settings on record: various in vitro efficacy assays; cited from earlier work.

Where [2] appears, read: [3H]Ketanserin 0.50 nM, membranes from rat brain (cortex), read-out: 5-HT2A-bind. IC50.

T2 sequence (P14842 whole entry): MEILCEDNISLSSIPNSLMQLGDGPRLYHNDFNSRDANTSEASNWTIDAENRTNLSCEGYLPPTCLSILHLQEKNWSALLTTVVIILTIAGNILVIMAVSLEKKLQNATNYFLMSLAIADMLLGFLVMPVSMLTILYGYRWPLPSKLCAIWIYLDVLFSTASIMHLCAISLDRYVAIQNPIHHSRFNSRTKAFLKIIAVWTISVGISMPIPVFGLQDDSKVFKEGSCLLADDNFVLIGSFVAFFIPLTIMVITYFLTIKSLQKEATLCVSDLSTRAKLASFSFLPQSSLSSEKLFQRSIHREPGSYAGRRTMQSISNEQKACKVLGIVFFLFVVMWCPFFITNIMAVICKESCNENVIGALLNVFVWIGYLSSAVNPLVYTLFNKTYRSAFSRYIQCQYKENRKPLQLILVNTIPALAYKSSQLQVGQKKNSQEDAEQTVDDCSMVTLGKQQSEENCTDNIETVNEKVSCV

On to `O=S1(=O)c2cccc3cccc(c23)N1CCCN1CCN(c2ccc3[nH]ccc3c2)CC1` [Compound 1a, 2-{3-[4-(1H-Indol-5-yl)piperazin-1-yl]propan-1-yl}-2H-naphtho[1,8-cd]isothiazole 1,1-dioxide, Hydrochloride], for which the IC50 in assay [1] ([3H]YM-09151-2 0.06 nM, membranes of CHO cells, read-out: D4-bind. IC50) amounted to 1.9 nM; at 5-HT2A receptors (setting [2]), 0.79 nM.
`Cl.O=S1(=O)c2cccc3cccc(c23)N1CCCN1CCN(c2ccc3cc[nH]c3c2)CC1` [Compound 1b, 2-{3-[4-(1H-Indol-6-yl)piperazin-1-yl]propan-1-yl}-2H-naphtho[1,8-cd]isothiazole 1,1-dioxide, Hydrochloride]: the “D4-bind. % inhibition of binding” value in assay [1] ([3H]YM-09151-2 0.06 nM) is on record as 91% (50 nM). The IC50 on 5-HT2A receptors (setting [2]) stood at 1.8 nM.
As for `O=S1(=O)c2cccc3cccc(c23)N1CCCN1CC=C(c2ccc3[nH]ccc3c2)CC1` [Compound 1c, 2-{3-[4-(1H-Indol-5-yl)-3,6-dihydro-2H-pyridin-1-yl]propan-1-yl}-2H-naphtho[1,8-cd]isothiazole 1,1-dioxide, Hydrochloride], the IC50 in assay [1] came out at 0.73 nM; on 5-HT2A receptors, 0.48 nM.
Turning to `O=S1(=O)c2cccc3cccc(c23)N1CCCN1CCC(c2ccc3[nH]ccc3c2)CC1` [Compound 1d, Hydrochloride], the “D4-bind. % inhibition of binding” value in assay [1] ([3H]YM-09151-2 0.06 nM) is 83% (50 nM). Moreover, the IC50 at 5-HT2A receptors (setting [2]) stood at 9.2 nM.
Take `CC(C)Oc1cccnc1N(C)C1CCN(Cc2ccccc2)CC1` [Compound U-101958]: the “Functional activity at D4 receptor (literature)” value at D4 receptor is “partial D4 receptor agonists”.
